{"source": "patent US20100069854A1", "about": "“Elastomeric Devices Containing Chlorhexidine/Fatty Acid Salts Made From Fatty Acids of 12 to 18 Carbons” (priority 2008, published 2010)", "assay": "Rate of release of chlorhexidine/fatty acid salts from coated polyurethane tubes into DI water", "assay_type": "physicochemical", "settings": "for Cumulative release of the chlorhexidine/fatty acid salts from the coated polyurethane tubes: 1 cm coated tube in DI water, 37° C.", "protocol": "A solution of each respective chlorhexidine/fatty acid salt was prepared and used to infuse a sample of elastomeric material. To perform the test, individual samples, 8 cm pieces of polyurethane tube containing a colorant, were surface dip coated in respective solutions of the chlorhexidine/fatty acid salts. The solutions were prepared as follows: 8.6 g of Tecoflex (Noveon, Cleveland, Ohio) was dissolved in 174 g of Tetrahydrofuran and methanol. 5.88 g of chlorhexidine acetate, chlorhexidine laurate, chlorhexidine myristate, chlorhexidine palmitate and chlorhexidine stearate were individually dissolved into the polymer-solvent mixture. The samples were immersed into the solvent-polymer-salt mixture and then dried at room temperature, evaporating the solvent. A polymeric coating was produced on the surface of the tubes. The amounts of chlorhexidine/fatty acid salt adhered per cm of the tube was measured (Table 2) by exhaustively extracting the salt and measuring UV absorbance at 253 nm relative to controls: For each of the samples, the rate of release of chlorhexidine/fatty acid salts into an aqueous solution was determined. To perform the rate of release test, 1 cm from each of the coated polyurethane tubes, were submerged in DeIonized (DI) water and incubated at 37° C. for a period of 28 days to determine the rate of release of the salts from the respective 1 cm samples of coated polyurethane tubing. The water was collected and replaced with fresh water after approximately 2 hours. The water was again collected and replaced with fresh water after the first day and every seven days thereafter. The amount of chlorhexidine/fatty acid salt in the collected water was measured with an Agilent 8453 UV-Vis Diode Array Detector with a manual setup using a cuvette w/path length of 1 cm. Chlorhexidine absorbance was read at 253 nm and concentration was calculated via a calibration curve developed using standards of 1, 5, 10, 20, 30, 35, and 40 μg/mL chlorhexidine acetate in DI Water. The percentage of chlorhexidine/fatty acid salt released from the sample into an aqueous media (percent release) was calculated according to the following equation: Percent release=(cumulative release at that time period/initial content)*100.", "data": [{"compound": "N=C(NCCCCCCNC(=N)NC(=N)Nc1ccc(Cl)cc1)NC(=N)Nc1ccc(Cl)cc1.Nc1ccc(P(=O)(O)O)cc1.Nc1ccc(P(=O)(O)O)cc1", "note": "[Chlorhexidine Palmitate, chlorhexidine dipalmitate]", "values": [{"measurement": "Cumulative release of the chlorhexidine/fatty acid salts from the coated polyurethane tubes", "setting": "Day 1", "value": 28, "unit": "g"}, {"measurement": "Cumulative release of the chlorhexidine/fatty acid salts from the coated polyurethane tubes", "setting": "Day 7", "value": 79, "unit": "g"}, {"measurement": "Cumulative release of the chlorhexidine/fatty acid salts from the coated polyurethane tubes", "setting": "Day 14", "value": 112, "unit": "g"}, {"measurement": "Cumulative release of the chlorhexidine/fatty acid salts from the coated polyurethane tubes", "setting": "Day 21", "value": 132, "unit": "g"}, {"measurement": "Cumulative release of the chlorhexidine/fatty acid salts from the coated polyurethane tubes", "setting": "Day 28", "value": 140, "unit": "g"}, {"measurement": "Release from the coated sample over the test (in words)", "setting": "FIG. 1, 28 days in DI water", "value": "continually released at an appreciable rate throughout the duration of the test"}, {"measurement": "Amount released from the coated sample over the 7 day period", "setting": "from 21 to 28 days", "value": 8, "unit": "µg"}]}]}
